In ChEMBL document CHEMBL1159075, “The chemical synthesis and antibiotic activity of a diverse library of 2-aminobenzimidazole small molecules against MRSA and multidrug-resistant A. baumannii” (Bioorg Med Chem, 2010):
≈ marks a conversion by molar mass, not a printed value.

What was measured:
[1] = system: Acinetobacter baumannii; test: Antibacterial activity against Acinetobacter baumannii ATCC 19606 after 16 to 20 hrs by microdilution susceptibility test; assay type: functional; details: ATCC 19606 = CIP 70.34 = JCM 6841
[2] = system: Acinetobacter baumannii; test: Antibacterial activity against Acinetobacter baumannii UH8407 after 16 to 20 hrs by microdilution susceptibility test; assay type: functional
[3] = system: Acinetobacter baumannii; test: Antibacterial activity against Acinetobacter baumannii 3304 after 16 to 20 hrs by microdilution susceptibility test; assay type: functional
[4] = system: Acinetobacter baumannii; test: Antibacterial activity against Acinetobacter baumannii AB0043 after 16 to 20 hrs by microdilution susceptibility test; assay type: functional
[5] = system: Acinetobacter baumannii; test: Antibacterial activity against multidrug-resistant Acinetobacter baumannii BAA-1605 after 16 to 20 hrs by microdilution susceptibility test; assay type: functional
[6] = system: Staphylococcus aureus; test: Antibacterial activity against methicillin-resistant Staphylococcus aureus BAA-44 after 16 to 20 hrs by microdilution susceptibility test; assay type: functional
[7] = system: Staphylococcus aureus; test: Antibacterial activity against Staphylococcus aureus ATCC 29213 after 16 to 20 hrs by microdilution susceptibility test; assay type: functional
[8] = system: Staphylococcus aureus; test: Antibacterial activity against Staphylococcus aureus ATCC 29740 after 16 to 20 hrs by microdilution susceptibility test; assay type: functional
[9] = system: Staphylococcus aureus; test: Antibacterial activity against Staphylococcus aureus ATCC 25923 after 16 to 20 hrs by microdilution susceptibility test; assay type: functional
[10] = system: Staphylococcus aureus; test: Antibacterial activity against methicillin-resistant Staphylococcus aureus BAA-44 at […] uM after 16 to 20 hrs by microdilution susceptibility test; assay type: functional
[11] = Toxicity in defibrinated sheep RBC assessed as hemolysis at 25 uM by UV spectrometry; assay type: cell-based, Ovis aries, Erythrocyte; details: defibrinated sheep red blood cells, read-out: Activity
[12] = Induction of pore-formation in synthetic 1-palmitoyl-2-oleoyl-sn-glycero-3-phosphocholine vesicles assessed as dye leakage at 25 uM; assay type: physicochemical
[13] = Induction of pore-formation in synthetic 1-palmitoyl-2-oleoyl-sn-glycero-3-phosphoglycerol vesicles assessed as dye leakage at 25 uM; assay type: physicochemical
[14] = Induction of pore-formation in synthetic 1-palmitoyl-2-oleoyl-sn-glycero-3-phosphoglycerol vesicles assessed as dye leakage at >500 uM; assay type: physicochemical
[15] = system: Staphylococcus aureus; test: Ratio of MBC to MIC for Staphylococcus aureus BAA-44 after 16 to 20 hrs by microdilution susceptibility test

## C[C@@H](O)[C@H]1C(=O)N2C(C(=O)O)=C(SCCNC=N)C[C@H]12 [IMIPENEM ANHYDROUS]
[1]
  MIC: 0.391 µM (≈ 0.117 µg/mL)
[2]
  MIC: 3.12 µM (≈ 0.935 µg/mL)
[3]
  MIC: 200 µM (≈ 59.9 µg/mL)
[4]
  MIC: 50 µM (≈ 15 µg/mL)
[5]
  MIC: 50 µM (≈ 15 µg/mL)

## [N-]=[N+]=Nc1ccc(C(=O)Nc2ccc3[nH]c(N)nc3c2)cc1
[6]; Staphylococcus aureus, BAA-44
  MIC: 400 µM (≈ 117 µg/mL)

## Nc1nc2cc(NS(=O)(=O)c3ccc4ccccc4c3)ccc2[nH]1
[6]; Staphylococcus aureus, BAA-44
  MIC: 100 µM (≈ 33.8 µg/mL)
[7]
  MIC: 100 µM (≈ 33.8 µg/mL)

## CCCCCCCc1ccc(C(=O)Nc2ccc3[nH]c(N)nc3c2)cc1
[6]; Staphylococcus aureus, BAA-44
  MIC: 25 µM (≈ 8.76 µg/mL)
[7]
  MIC: 25 µM (≈ 8.76 µg/mL)
[8]
  MIC: 12.5 µM (≈ 4.38 µg/mL)
[9]
  MIC: 50 µM (≈ 17.5 µg/mL)
[1]
  MIC: 50 µM (≈ 17.5 µg/mL)
[3]
  MIC: 50 µM (≈ 17.5 µg/mL)
[4]
  MIC: 12.5 µM (≈ 4.38 µg/mL)

## [N-]=[N+]=NCCc1ccsc1
[1]
  MIC: > 400 µM
[2]
  MIC: > 400 µM
[4]
  MIC: > 400 µM
[5]
  MIC: > 400 µM

## GENTAMICIN
[6]
  MIC: 200 µM
[7]
  MIC: 0.391 µM
[8]
  MIC: 6.2 µM
[1]
  MIC: 100 µM
[2]
  MIC: > 400 µM
[3]
  MIC: > 400 µM
[4]
  MIC: 200 µM
[5]
  MIC: > 400 µM

## CCCCCCCCCCCC(=O)Nc1ccc2[nH]c(N)nc2c1
[6]; Staphylococcus aureus, BAA-44
  MIC: 12.5 µM (≈ 4.13 µg/mL)
[7]
  MIC: 25 µM (≈ 8.26 µg/mL)
[8]
  MIC: 12.5 µM (≈ 4.13 µg/mL)
[9]
  MIC: 50 µM (≈ 16.5 µg/mL)
[1]
  MIC: 25 µM (≈ 8.26 µg/mL)
[2]
  MIC: 25 µM (≈ 8.26 µg/mL)
[3]
  MIC: 12.5 µM (≈ 4.13 µg/mL)
[4]
  MIC: 12.5 µM (≈ 4.13 µg/mL)
[5]
  MIC: 12.5 µM (≈ 4.13 µg/mL)

## CCCCCCS(=O)(=O)Nc1ccc2[nH]c(N)nc2c1
[6]; Staphylococcus aureus, BAA-44
  MIC: 100 µM (≈ 29.6 µg/mL)
[7]
  MIC: 100 µM (≈ 29.6 µg/mL)
[8]
  MIC: 100 µM (≈ 29.6 µg/mL)

## CCCCCCCCCCc1cn(-c2ccc(C(=O)Nc3ccc4[nH]c(N)nc4c3)cc2)nn1
[6]; Staphylococcus aureus, BAA-44
  MIC: > 400 µM

## Nc1nc2cc(NC(=O)c3ccc(-c4ccccc4)cc3)ccc2[nH]1
[6]; Staphylococcus aureus, BAA-44
  MIC: > 400 µM
[7]
  MIC: > 400 µM
[8]
  MIC: > 400 µM
[9]
  MIC: > 400 µM
[1]
  MIC: > 400 µM
[3]
  MIC: > 400 µM
[4]
  MIC: > 400 µM

## CC(C)(C)c1ccc(C(=O)Nc2ccc3[nH]c(N)nc3c2)cc1
[6]; Staphylococcus aureus, BAA-44
  MIC: 50 µM (≈ 15.4 µg/mL)
[7]
  MIC: 50 µM (≈ 15.4 µg/mL)
[8]
  MIC: 50 µM (≈ 15.4 µg/mL)
[9]
  MIC: 100 µM (≈ 30.8 µg/mL)
[1]
  MIC: 100 µM (≈ 30.8 µg/mL)
[2]
  MIC: 100 µM (≈ 30.8 µg/mL)
[3]
  MIC: 100 µM (≈ 30.8 µg/mL)
[4]
  MIC: 50 µM (≈ 15.4 µg/mL)
[5]
  MIC: 100 µM (≈ 30.8 µg/mL)

## CCCCCCCCCCCCCCCCCC(=O)Nc1ccc2[nH]c(N)nc2c1
[1]
  MIC: > 400 µM
[2]
  MIC: > 400 µM
[3]
  MIC: > 400 µM
[4]
  MIC: > 400 µM
[5]
  MIC: > 400 µM

## CCCCCc1ccc(C(=O)Nc2ccc3[nH]c(N)nc3c2)cc1.Cl
[6]
  MBC50: 5.88 µM
  MBC90: 11.15 µM
[6]; Staphylococcus aureus, BAA-44
  MBC: 25 µM
  MIC: 12.5 µM
[7]
  MIC: 12.5 µM
[8]
  MIC: 6.25 µM
[9]
  MIC: 12.5 µM
[10]
  Activity: 99.15%
[1]
  MIC: 25 µM
[2]
  MIC: 25 µM
[3]
  MIC: 25 µM
[4]
  MIC: 12.5 µM
[5]
  MIC: 12.5 µM
[11]
  hemolysis at 25 µM: < 1%
[12]
  Activity: 9%
[13]
  Activity: 16%
[14]
  Activity: > 50%
[15]
  Ratio: 2

## CN(C)[C@@H]1C(O)=C(C(N)=O)C(=O)[C@@]2(O)C(O)=C3C(=O)c4c(O)cccc4[C@@](C)(O)[C@H]3C[C@@H]12 [TETRACYCLINE]
[1]
  MIC: 3.13 µM (≈ 1.39 µg/mL)
[2]
  MIC: > 400 µM
[3]
  MIC: 25 µM (≈ 11.1 µg/mL)
[4]
  MIC: 6.25 µM (≈ 2.78 µg/mL)
[5]
  MIC: > 400 µM

## Nc1nc2cc(NC(=O)c3ccccc3)ccc2[nH]1
[11]
  hemolysis at 25 µM: < 1%

## CCCCCCCCCC(=O)Nc1ccc2[nH]c(N)nc2c1
[6]; Staphylococcus aureus, BAA-44
  MIC: 25 µM (≈ 7.56 µg/mL)
[7]
  MIC: 12.5 µM (≈ 3.78 µg/mL)
[8]
  MIC: 12.5 µM (≈ 3.78 µg/mL)
[9]
  MIC: 25 µM (≈ 7.56 µg/mL)
[1]
  MIC: 25 µM (≈ 7.56 µg/mL)
[2]
  MIC: 25 µM (≈ 7.56 µg/mL)
[3]
  MIC: 25 µM (≈ 7.56 µg/mL)
[4]
  MIC: 25 µM (≈ 7.56 µg/mL)
[5]
  MIC: 25 µM (≈ 7.56 µg/mL)

## CCCCCc1ccc(-c2c[nH]c(N)n2)cc1
[6]; Staphylococcus aureus, BAA-44
  MIC: 12.5 µM (≈ 2.87 µg/mL)

## CCCCCCC(=O)Nc1ccc2[nH]c(N)nc2c1
[1]
  MIC: > 400 µM
[2]
  MIC: > 400 µM
[3]
  MIC: > 400 µM
[4]
  MIC: 400 µM (≈ 104 µg/mL)
[5]
  MIC: > 400 µM

## NC[C@H]1O[C@H](O[C@H]2[C@H](O)[C@@H](O[C@H]3O[C@H](CO)[C@@H](O)[C@H](N)[C@H]3O)[C@H](N)C[C@@H]2N)[C@H](N)C[C@@H]1O [TOBRAMYCIN]
[1]
  MIC: 25 µM (≈ 11.7 µg/mL)
[2]
  MIC: 200 µM (≈ 93.5 µg/mL)
[3]
  MIC: > 400 µM
[4]
  MIC: 200 µM (≈ 93.5 µg/mL)
[5]
  MIC: 6.25 µM (≈ 2.92 µg/mL)

## O=C(O)c1cn(C2CC2)c2cc(N3CCNCC3)c(F)cc2c1=O [CIPROFLOXACIN]
[6]; Staphylococcus aureus, BAA-44
  MIC: 12.5 µM (≈ 4.14 µg/mL)
[7]
  MIC: 0.391 µM (≈ 0.13 µg/mL)
[8]
  MIC: 0.391 µM (≈ 0.13 µg/mL)

## CCCCc1ccc(C(=O)Nc2ccc3[nH]c(N)nc3c2)cc1
[6]; Staphylococcus aureus, BAA-44
  MIC: 25 µM (≈ 7.71 µg/mL)
[7]
  MIC: 25 µM (≈ 7.71 µg/mL)
[8]
  MIC: 12.5 µM (≈ 3.85 µg/mL)
[9]
  MIC: 25 µM (≈ 7.71 µg/mL)
[1]
  MIC: 50 µM (≈ 15.4 µg/mL)
[2]
  MIC: 50 µM (≈ 15.4 µg/mL)
[3]
  MIC: 100 µM (≈ 30.8 µg/mL)
[4]
  MIC: 25 µM (≈ 7.71 µg/mL)
[5]
  MIC: 25 µM (≈ 7.71 µg/mL)

## CCCCCc1ccc(C(=O)Nc2ccccc2)cc1
[6]; Staphylococcus aureus, BAA-44
  MIC: > 400 µM
[1]
  MIC: > 400 µM

## CC1(C)S[C@@H]2[C@H](NC(=O)[C@H](N)c3ccccc3)C(=O)N2[C@H]1C(=O)O [AMPICILLIN]
[1]
  MIC: > 400 µM
[2]
  MIC: > 400 µM
[3]
  MIC: > 400 µM
[4]
  MIC: > 400 µM
[5]
  MIC: > 400 µM

## CCCCCCc1ccc(C(=O)Nc2ccc3[nH]c(N)nc3c2)cc1
[6]; Staphylococcus aureus, BAA-44
  MIC: 12.5 µM (≈ 4.21 µg/mL)
[7]
  MIC: 12.5 µM (≈ 4.21 µg/mL)
[8]
  MIC: 6.25 µM (≈ 2.1 µg/mL)
[9]
  MIC: 12.5 µM (≈ 4.21 µg/mL)
[1]
  MIC: 50 µM (≈ 16.8 µg/mL)
[2]
  MIC: 25 µM (≈ 8.41 µg/mL)
[3]
  MIC: 50 µM (≈ 16.8 µg/mL)
[4]
  MIC: 12.5 µM (≈ 4.21 µg/mL)
[5]
  MIC: 12.5 µM (≈ 4.21 µg/mL)

## CN[C@H](CC(C)C)C(=O)N[C@H]1C(=O)N[C@@H](CC(N)=O)C(=O)N[C@H]2C(=O)N[C@H]3C(=O)N[C@H](C(=O)N[C@H](C(=O)O)c4cc(O)cc(O)c4-c4cc3ccc4O)[C@H](O)c3ccc(c(Cl)c3)Oc3cc2cc(c3O[C@@H]2O[C@H](CO)[C@@H](O)[C@H](O)[C@H]2O[C@H]2C[C@](C)(N)[C@H](O)[C@H](C)O2)Oc2ccc(cc2Cl)[C@H]1O [VANCOMYCIN]
[6]; Staphylococcus aureus, BAA-44
  MIC: 0.391 µM (≈ 0.567 µg/mL)
[7]
  MIC: 0.391 µM (≈ 0.567 µg/mL)
[8]
  MIC: 0.195 µM (≈ 0.283 µg/mL)
[9]
  MIC: 0.391 µM (≈ 0.567 µg/mL)

## CN[C@@H]1[C@H](O[C@H]2[C@H](O[C@H]3[C@H](O)[C@@H](O)[C@H](N=C(N)N)[C@@H](O)[C@@H]3N=C(N)N)O[C@@H](C)[C@]2(O)C=O)O[C@@H](CO)[C@H](O)[C@H]1O [STREPTOMYCIN]
[6]; Staphylococcus aureus, BAA-44
  MIC: > 200 µM
[7]
  MIC: 1.56 µM (≈ 0.907 µg/mL)
[8]
  MIC: 0.391 µM (≈ 0.227 µg/mL)

## COc1cccc(OC)c1C(=O)N[C@@H]1C(=O)N2[C@@H]1SC(C)(C)[C@@H]2C(=O)O [METHICILLIN]
[6]; Staphylococcus aureus, BAA-44
  MIC: > 400 µM
[7]
  MIC: 3.13 µM (≈ 1.19 µg/mL)

## CCCCc1cn(-c2ccc(C(=O)Nc3ccc4[nH]c(N)nc4c3)cc2)nn1
[6]; Staphylococcus aureus, BAA-44
  MIC: > 400 µM
